Source: patent EP4740940A1, “POLLEN PARTICLES AS CARRIERS FOR PULMONARY DELIVERY” (Universidade de Santiago de Compostela, priority 2023, dated 2025)
≈ marks a conversion by molar mass, not a printed value.

Tests used:
Mycobacterium species = settings: cited from earlier work
M. phlei, M. smegmatis = test: Resazurin-based microdilution growth inhibition assay; assay type: cell-based; settings: for IC50 / IC90: strain and unit inferred
Protocol: The antibacterial activity of the microparticles of the invention with rifabutin (and of the nanosystems) was evaluated in the strain that grows rapidly, M. phlei, and in the strain that grows slowly, M. smegmatis, using a resazurin-based microdilution assay according to the EUCAST guidelines and CSLI guidelines with slight modifications. This is a quick and objective method, and the minimum inhibitory concentration (MIC) is easily detectable because resazurin (blue) turns into resorufin (pink fluorescence) in the presence of viable bacteria. The microparticles of the invention with rifabutin were diluted in a cation-adjusted 2X Mueller-Hinton broth (CaMHB) until reaching a final antibiotic concentration of 32 mg/L. Since the range of susceptibility of Mycobacterium species to rifabutin is ≤0.25-16 mg/L, the highest tested antibiotic concentration was 16 mg/L. A bacterial suspension (in CaMHB) was diluted to a final concentration of 5 × 10^5 CFU/mL. For efficacy determination, the following controls were used: (i) growth control (without treatment), (ii) sterility control (CaMHB), (iii) positive control for inhibitory effect (free rifabutin in solution), and as well as (iv) the microparticles of the invention (without rifabutin), so as to take into account the possible effects of the microparticles of the invention on bacterial growth. […] Fluorescence intensity was measured at 560 and 590 nm of excitation and monitored using the FLUOR®star Omega multimode lector (Biotron Healthcare, India) and the MARS data analysis software, after an incubation period of 30 min at 37°C. The lowest concentration at which color change was observed was considered the minimum inhibitory concentration (MIC) value. Furthermore, IC50 was calculated using an online tool: "Quest Graph™ IC50 Calculator". AAT Bioquest, Inc.

RAW 264.7 cells = test: MTT cytotoxicity assay; assay type: cell-based; settings: 12.5 µg/mL rifabutin
Protocol: To ensure that the microparticles of the invention can be safely used for pharmaceutical uses, MTT was used to investigate their cytotoxicity in Raw264.7 cells. In that sense, the in vitro toxicity of the microparticles of the invention, prepared according to Example 4, was evaluated by means of an MTT colorimetric assay, quantifying the water-insoluble formazan in RAW 264.7 cells after 24 hours of incubation of different particle concentrations. Cells were seeded (10,000 cells/well) 24 h before the experiment in a 96-well plate in a DMEM culture medium (10% FBS and 1% penicillin/streptomycin) at […] 37°C and 5% CO2. The medium was then replaced with the formulations and the cells were incubated for 24 hours. Fresh medium was used as negative control and Triton x100 (1% v/v) was used as positive control. After 24 h, 0.5 mg/mL of MTT dissolved in PBS were added, and the cells were incubated for 4 h at 37°C in darkness. Formazan crystals were dissolved by means of adding HCl 0.04 N in isopropanol and absorbance was measured at 570 nm using a microplate reader (Synergy H1 Hybrid Multi-Mode, BioTek, Winooski, VT, USA). Cell viability (%) was calculated following the equation: Cell viability (%) = (Sample absorbance−Negative control absorbance)/(Positive control absorbance−Negative control absorbance) × 100 [formula]

Mycobacterium smegmatis = test: Biofilm disruption, crystal violet assay; assay type: cell-based; parameters: MIC: unit not given beside the values
Protocol: In these experiments, the antimicrobial potential of the system was evaluated in Mycobacterium smegmatis used as a model of M. tuberculosis as they have homologous genes. The biofilm formation potential of Mycobacterium smegmatis was evaluated by scanning electron microscopy and the formation thereof was quantified with crystal violet, using 96-well plates made of polyvinyl chloride.
A crystal violet-based spectrophotometric study was used. To that end, M. smegmatis was inoculated in liquid culture (5 mL of 7H9 medium supplemented with OACC) and left to grow to exponential phase. The culture was diluted 1:100 and 100 µL were pipetted into each well. The controls were the rifabutin-free formulations and the blank was the bacterial culture-free medium. After incubating for two days at 37°C and once the biofilm was formed, the plates were washed with distilled water to remove planktonic cells and 200 µL of each formulation were added in serial dilutions (in the same manner as above). After 24 h, the plate was washed with water again to remove possible planktonic cells, and the biofilm was stained with 125 µL of 0.1% crystal violet solution and incubated for 10 min at room temperature. It was the washed with water and stirred vigorously. Finally, remaining crystal violet was solubilized by adding 200 µL of 95% ethanol and incubating for 15 min at room temperature. The solution was then transferred to a 96-well, flat-bottom plate, and biofilm formation was measured at 570 nm.

[1] = cited from earlier work
[2] = Mycolicibacterium smegmatis, Biofilm culture, unit inferred

## CO[C@H]1/C=C/O[C@@]2(C)Oc3c(C)c(O)c4c(c3C2=O)C2=NC3(CCN(CC(C)C)CC3)NC2=C(NC(=O)/C(C)=C\C=C\[C@H](C)[C@H](O)[C@@H](C)[C@@H](O)[C@@H](C)[C@H](OC(C)=O)[C@@H]1C)C4=O [Rifabutin]
Mycobacterium species
  range of susceptibility of Mycobacterium species to rifabutin: 0.25 to 16 mg/L
M. phlei, M. smegmatis; 2-day preinoculum, strain and unit not given
  MIC: 4
M. phlei, M. smegmatis; 4-day preinoculum, strain and unit not given
  MIC: 4
M. phlei, M. smegmatis; 48 h, 2-day preinoculum
  IC50: 2.24 µg/mL (≈ 2.64 µM)
  IC90: 20.2 µg/mL (≈ 23.8 µM)
M. phlei, M. smegmatis; 96 h, 4-day preinoculum
  IC50: 2.04 µg/mL (≈ 2.41 µM)
  IC90: 18.4 µg/mL (≈ 21.7 µM)
M. phlei, M. smegmatis; Preinoculum culture t=0
  IC50: 0.34 µg/mL (≈ 0.401 µM)
  IC90: 3.06 µg/mL (≈ 3.61 µM)
M. phlei, M. smegmatis; Preinoculum culture t=0, strain and unit not printed in table (method: mg/L)
  MIC: 1
RAW 264.7 cells
  viability: > 50%
Mycobacterium smegmatis; 2 mg/mL
  difference between culture with rifabutin in suspension and without treatment: hardly any differences
Mycobacterium smegmatis; Biofilm culture, unit not given
  MIC: 4
Mycobacterium smegmatis; [2]
  IC50: 4.67 µg/mL (≈ 5.51 µM)
  IC90: 42 µg/mL (≈ 49.6 µM)
[1]
  oral bioavailability (reaches systemic circulation): less than 20%
